Measured values published in US20110086826A1, “LIPOSOMAL CAMPTOTHECINS AND USES THEREOF” (TEKMIRA PHARMACEUTICALS CORPORATION, priority 2000, published 2011).
Read-outs that look alike come from different tables or passages of the source. Marks after values point to notes of the source that are not given here.

Tests used:
[1] = humans, daily for 5 consecutive days (d×5); cited from earlier work
[2] = tested on: MX-1 human breast xenografts; assay: Subcutaneous MX-1 human breast xenografts
Description: FIG. 5. […] Data is from NCTEF-004.
FIG. 7. […] Data is from NCTEF-006.
FIG. 8. […] Data is from NCTEF-009.

[3] = Serum chemistry panel; type: in vivo, ICR mice; details: 10 mg/kg i.v., day 3 post-injection
Method: (§2) Myelosuppression and neutropenia studies. […] Empty vesicles were administered as a control. CBC and differential analysis was performed at Central Labs for Veterinarians (Langley, BC) to quantify cellular levels, ratios and morphology.

[4] = tested on: LX-1 human SCLC xenografts; assay: Subcutaneous LX-1 human SCLC xenografts; details: for % ILS (increase in lifespan) / DRD (drug related deaths) / LCK (log cell kill, gross) / MWL (maximum mean weight loss): LX-1 s.c.
Description: Topotecan was encapsulated in SM:CH (55:45) vesicles at a drug-to-lipid ratio of 0.10 (w/w) using the Mg-A23187 method as described in Experimental. All dilutions were made in sterile 0.9% saline immediately prior to injection. Drug administration was made via the lateral tail vein at 10 days post-tumor cell implantation when the tumors were 100-300 mm^3. Data points represent mean±SEM (n=6).
Topotecan was encapsulated in SM:CH (55:45) vesicles at a drug-to-lipid ratio of 0.10 (w/w) using the Mg-A23187 method as described in Experimental. All dilutions were made in sterile 0.9% saline immediately prior to injection. Drug administration was made via the lateral tail vein on day 14, 21 and 28 post-tumor cell implantation. Data points represent mean±SEM (n=6).
Tumor Models. […] Human MX-1 and LX-1 cell lines were obtained from the DCTD Tumor Repository in Frederick, Md. These cell lines were received as tumor fragments and were propagated in NCr nude mice by serial transplantation of 3×3 mm fragments. Experiments were not initiated until the cell lines had been through 3 passages in nude mice and the tumor lines were restarted when the passage number reached 10.
Efficacy Studies. […] For the MX-1 and LX-1 tumor models, tumor volume was determined by repeated perpendicular measurements of tumor dimensions and using the formula:

[5] = Pharmacokinetic and in vivo leakage studies; design: species or system ICR mice; details: plasma, i.v.
Method: 5. Pharmacokinetic and in vivo leakage studies. […] Two different drug-to-lipid ratios, i.e., 0.10 (w/w) and 0.02 (w/w), were used to examine the influence of drug-to-lipid ratio and lipid dose on drug leakage and PK behavior. Encapsulated topotecan was administered at 1 mg/kg (10 or 50 mg/kg lipid) and 5 mg/kg topotecan (50 mg/kg lipid). […] Total topotecan in blood was determined by a fluorescence assay preceded by precipitation of plasma proteins. Topotecan was quantified by spectrofluorimetry at an excitation (2.5 nm slit width) and emission wavelength (2.5 nm slit width) of 380 and 518 nm, respectively. Lipid levels in plasma were determined by liquid scintillation counting of the [^3H]-CHE label.
All parameters were derived from one or two-compartment models using WINNONLIN PK modeling software.

[6] = tested on: L1210 murine leukemia; assay: Intravenous L1210 murine leukemia model; details: for % ILS (increase in lifespan) / DRD (drug related deaths) / MWL (maximum mean weight loss) / TF (tumor free animals at end of study): L1210 i.v.
Method: FIG. 3. […] L1210 cells (10^5 cells in 200 μl) were injected i.v. into the tail vein of BDF-1 mice on day 0. […] Each group consisted of 8 animals. Data is from NCTEF-005.
(§1) In the above formula, MTD is the maximum tolerated dose, defined as that dose that causes a mean weight loss of 20% in a group of animals; and MED is the minimal effective dose, defined as the dose that produces an optimal % T/C value of ≦40 in the solid tumor models or an % ILS of 50±10% in the survival models.

[7] = cited from earlier work
[8] = tested on: CT-26 murine colon metastases; assay: Intrasplenic CT-26 murine colon metastases model; details: for % ILS (increase in lifespan) / DRD (drug related deaths) / MWL (maximum mean weight loss) / TF (tumor free animals at end of study): CT-26 i.s.
Method: FIG. 4. […] CT-26 cells (10^4 cells in 50 μl) were injected into the spleen of Balb/c mice on day 0. […] Each group consisted of 8 animals. Data is from NCTEF-002.
as §1

[9] = Myelosuppression and neutropenia studies (blood CBC and differential); type: in vivo, ICR mice; details: 10 mg/kg i.v.
Method: as §2

[10] = MTD of free topotecan in humans; details: 1.5 vs 14 mg/M^2
[11] = Topotecan lactone species in plasma; type: in vivo, mice; details: after only 5 minutes
[12] = MTD studies (weight loss over time); details: if the drug was infused over 5-10 minutes
Method: MTD studies. MTD studies were performed in the host mouse strain corresponding to each tumor model. Single dose and multidose MID were determined by monitoring weight loss over time.

[13] = MX-1 s.c., q3dx4, 1.25 mg/kg/dose i.v.
[14] = MX-1 s.c., q3dx4, 10 mg/kg/dose i.v.
[15] = MX-1 s.c., q7dx3, 5 mg/kg/dose i.v.
[16] = MX-1 s.c., q7dx3, 10 mg/kg/dose i.v.
[17] = MX-1 s.c., single dose 5, 10 and 40 mg/kg
[18] = MX-1 s.c., single i.v. dose 5 mg/kg
[19] = MX-1 s.c., single i.v. dose 10 mg/kg
[20] = MX-1 s.c., single i.v. dose 40 mg/kg
[21] = q7dx3, NCTEF-007, 10 mg/kg/dose i.v.
[22] = q7dx3, NCTEF-007, 30 mg/kg/dose i.v.
[23] = q7dx3, NCTEF-011, 10 mg/kg/dose i.v.
[24] = q7dx3, NCTEF-011, 30 mg/kg/dose i.v.
[25] = L1210, single i.v. dose, highest dose of free topotecan
[26] = day 3 post-injection (first line of treatment)
[27] = day 21 post-injection (second line of treatment)

Structure (SMILES): CC[C@@]1(O)C(=O)OCc2c1cc1n(c2=O)Cc2cc3c(CN(C)C)c(O)ccc3nc2-1 [Free, 9-dimethylaminomethyl-10-hydroxy-camptothecin]
- MTD [1]: 1.5 mg/M^2/dose
- anti-tumor activity (in words) ([2]; MX-1, q7d×3, 5 or 10 mg/kg/dose): little activity was observed
- % ILS (increase in lifespan) [2, 13]: 20%
- DRD (drug related deaths) [2, 13]: 0/6
- LCK (log cell kill, gross) [2, 13]: 0.17
- MWL (maximum mean weight loss) [2, 13]: +^h
- TF (tumor free animals at end of study) [2, 13]: 0/6
- DRD (drug related deaths) [2, 14]: 0/6
- LCK (log cell kill, gross) [2, 14]: 0.21
- MWL (maximum mean weight loss) [2, 14]: +
- TF (tumor free animals at end of study) [2, 14]: 1/6
- DRD (drug related deaths) [2, 15]: 0/6
- LCK (log cell kill, gross) [2, 15]: 0.15
- MWL (maximum mean weight loss) [2, 15]: +
- TF (tumor free animals at end of study) [2, 15]: 0/6
- % T/C (optimal) [2, 16]: 61%
- DRD (drug related deaths) [2, 16]: 0/6
- MWL (maximum mean weight loss) [2, 16]: −0.8%
- TF (tumor free animals at end of study) [2, 16]: 0/6
- body weight [2, 17]: all animals gained weight
- drug-related deaths [2, 17]: No drug-related deaths were observed
- % ILS (increase in lifespan) [2, 18]: 0%
- % T/C (optimal) [2, 18]: 78%
- DRD (drug related deaths) [2, 18]: 0/6
- LCK (log cell kill, gross) [2, 18]: 0.02
- MWL (maximum mean weight loss) [2, 18]: +
- T − C (tumor growth delay) [2, 18]: 0.2 days
- TF (tumor free animals at end of study) [2, 18]: 0/6
- % ILS (increase in lifespan) [2, 19]: 13%
- DRD (drug related deaths) [2, 19]: 0/6
- LCK (log cell kill, gross) [2, 19]: 0.12
- MWL (maximum mean weight loss) [2, 19]: +
- TF (tumor free animals at end of study) [2, 19]: 0/6
- % ILS (increase in lifespan) [2, 20]: 35%
- % T/C (optimal) [2, 20]: 24%
- DRD (drug related deaths) [2, 20]: 0/6
- LCK (log cell kill, gross) [2, 20]: 0.35
- MWL (maximum mean weight loss) [2, 20]: +
- TF (tumor free animals at end of study) [2, 20]: 0/6
- ALT [3]: 13 ± 23 IU/L
- Albumin [3]: 32.8 ± 1.3 g/L
- BUN [3]: 9.4 ± 3.2 mmol/L
- Bilirubin [3]: 3.8 ± 0.8 µmol/L
- CPK [3]: 56 ± 38 IU/L
- Creatinine [3]: 82 ± 18 µmol/L
- Globulin [3]: 15.2 ± 1.1 g/L
- TP [3]: 48.0 ± 2.1 g/L
- anti-tumor activity (in words) ([4]; LX-1, initial single dose studies): inactive at evaluated doses<30 mg/kg
- % ILS (increase in lifespan) [4, 21]: 21%
- DRD (drug related deaths) [4, 21]: 0/6
- LCK (log cell kill, gross) [4, 21]: 0.14
- MWL (maximum mean weight loss) [4, 21]: −6.2%
- DRD (drug related deaths) [4, 22]: 0/6
- LCK (log cell kill, gross) [4, 22]: 1.53
- MWL (maximum mean weight loss) [4, 22]: −8.8%
- DRD (drug related deaths) [4, 23]: 0/6
- MWL (maximum mean weight loss) [4, 23]: −3.6%
- DRD (drug related deaths) [4, 24]: 2/6
- MWL (maximum mean weight loss) [4, 24]: −16.4%
- % ILS (increase in lifespan) ([4]; single i.v. dose 5 mg/kg): 0%
- DRD (drug related deaths) ([4]; single i.v. dose 5 mg/kg): 0/6
- LCK (log cell kill, gross) ([4]; single i.v. dose 5 mg/kg): 0.13
- MWL (maximum mean weight loss) ([4]; single i.v. dose 5 mg/kg): +
- % ILS (increase in lifespan) ([4]; single i.v. dose 10 mg/kg): 0%
- DRD (drug related deaths) ([4]; single i.v. dose 10 mg/kg): 0/6
- LCK (log cell kill, gross) ([4]; single i.v. dose 10 mg/kg): 0.18
- MWL (maximum mean weight loss) ([4]; single i.v. dose 10 mg/kg): +
- % ILS (increase in lifespan) ([4]; single i.v. dose 30 mg/kg): 7%
- DRD (drug related deaths) ([4]; single i.v. dose 30 mg/kg): 0/6
- LCK (log cell kill, gross) ([4]; single i.v. dose 30 mg/kg): 0.27
- MWL (maximum mean weight loss) ([4]; single i.v. dose 30 mg/kg): −1.3%
- α1/2 ([5]; 1 mg/kg): 0.14 h
- β1/2 ([5]; 1 mg/kg): 11.8 h
- α1/2 ([5]; 5 mg/kg): 0.26 h
- β1/2 ([5]; 5 mg/kg): 11.4 h
- long-term survivors (day 60) [6, 25]: one long-term survivor
- median survival [6, 25]: 13 days
- % ILS (increase in lifespan) ([6]; single i.v. dose 5 mg/kg): 11%
- DRD (drug related deaths) ([6]; single i.v. dose 5 mg/kg): 0/8
- MWL (maximum mean weight loss) ([6]; single i.v. dose 5 mg/kg): +
- TF (tumor free animals at end of study) ([6]; single i.v. dose 5 mg/kg): 0/8
- % ILS (increase in lifespan) ([6]; single i.v. dose 10 mg/kg): 22%
- DRD (drug related deaths) ([6]; single i.v. dose 10 mg/kg): 0/8
- MWL (maximum mean weight loss) ([6]; single i.v. dose 10 mg/kg): +
- TF (tumor free animals at end of study) ([6]; single i.v. dose 10 mg/kg): 0/8
- % ILS (increase in lifespan) ([6]; single i.v. dose 20 mg/kg): 33%
- DRD (drug related deaths) ([6]; single i.v. dose 20 mg/kg): 0/8
- MWL (maximum mean weight loss) ([6]; single i.v. dose 20 mg/kg): +
- TF (tumor free animals at end of study) ([6]; single i.v. dose 20 mg/kg): 0/8
- DRD (drug related deaths) ([6]; single i.v. dose 30 mg/kg): 0/8
- MWL (maximum mean weight loss) ([6]; single i.v. dose 30 mg/kg): +
- TF (tumor free animals at end of study) ([6]; single i.v. dose 30 mg/kg): 0/8
- DRD (drug related deaths) ([6]; single i.v. dose 40 mg/kg): 0/8
- MWL (maximum mean weight loss) ([6]; single i.v. dose 40 mg/kg): +
- TF (tumor free animals at end of study) ([6]; single i.v. dose 40 mg/kg): 0/8
- LD10 ([7]; mouse, in vivo): 14 mg/M2/dose
- LD10 ([7]; qd×5 schedule, Grochow et al.): ~4.7 mg/kg/dose
- % ILS ([8]; CT-26, single dose, over the dose range 5-40 mg/kg): 23-60%
- % ILS (increase in lifespan) ([8]; single i.v. dose 5 mg/kg): 31%
- DRD (drug related deaths) ([8]; single i.v. dose 5 mg/kg): 0/8
- MWL (maximum mean weight loss) ([8]; single i.v. dose 5 mg/kg): +
- TF (tumor free animals at end of study) ([8]; single i.v. dose 5 mg/kg): 0/8
- % ILS (increase in lifespan) ([8]; single i.v. dose 10 mg/kg): 23%
- DRD (drug related deaths) ([8]; single i.v. dose 10 mg/kg): 0/8
- MWL (maximum mean weight loss) ([8]; single i.v. dose 10 mg/kg): +
- TF (tumor free animals at end of study) ([8]; single i.v. dose 10 mg/kg): 0/8
- DRD (drug related deaths) ([8]; single i.v. dose 40 mg/kg): 0/8
- MWL (maximum mean weight loss) ([8]; single i.v. dose 40 mg/kg): −0.4%
- TF (tumor free animals at end of study) ([8]; single i.v. dose 40 mg/kg): 1/8
- Baso ([9]; day 3 post-injection): 0.057 ± 0.040 ×10^9/L
- Eosino ([9]; day 3 post-injection): 0.031 ± 0.021 ×10^9/L
- Lympho ([9]; day 3 post-injection): 5.90 ± 1.70 ×10^9/L
- Mono ([9]; day 3 post-injection): 0.177 ± 0.072 ×10^9/L
- Neutro ([9]; day 3 post-injection): 0.520 ± 0.200 ×10^9/L
- WBC ([9]; day 3 post-injection): 6.70 ± 1.95 ×10^9/L
- Hb [9, 26]: 136 ± 05 g/L
- Hc [9, 26]: 0.444 ± 0.012 L/L
- PLT [9, 26]: 879 ± 145 ×10^9/L
- RBC [9, 26]: 8.47 ± 0.39 ×10^12/L
- Baso ([9]; day 21 post-injection): 0.088 ± 0.071 ×10^9/L
- Eosino ([9]; day 21 post-injection): 0.034 ± .016 ×10^9/L
- Lympho ([9]; day 21 post-injection): 4.33 ± 0.93 ×10^9/L
- Mono ([9]; day 21 post-injection): 0.247 ± 0.180 ×10^9/L
- Neutro ([9]; day 21 post-injection): 0.480 ± 0.122 ×10^9/L
- WBC ([9]; day 21 post-injection): 5.16 ± 1.18 ×10^9/L
- Hb [9, 27]: 154 ± 04 g/L
- Hc [9, 27]: 0.493 ± 0.014 L/L
- PLT [9, 27]: 907 ± 059 ×10^9/L
- RBC [9, 27]: 9.81 ± 0.37 ×10^12/L
- human tolerated dose as share of the MTD in mice [10]: 11%
- topotecan present in plasma as the lactone species [11]: 48%
- true MTD (based on weight loss), estimated [12]: ~60 mg/kg
